Data set [1] is described as follows: Solubility in 0.1% aqueous sodium hydrogencarbonate (distilled water for sodium salts), Table 1. The settings on record: 0.1% aqueous solution of sodium hydrogencarbonate. The format is physicochemical. The source says:
The solubility in various solvents of several specific products obtained by the process of the present invention are shown in Table 1 in comparison with the solubility of siomycin A.

Data set [2] concerns Bacillus subtilis PCI 219. The data set can be described thus: Minimum inhibitory concentration, Bacillus subtilis PCI 219. The format is cell-based.
The next data set concerns Bacillus anthracis. The class given is cell-based.
The subject of data set [3] is Staphylococcus aureus FDA 219PJC-1. As to the kind of experiment: Minimum inhibitory concentration, Staphylococcus aureus FDA 219PJC-1. The class given is cell-based.
Data set [4] deals with Staphylococcus aureus 80257. The data set can be described thus: Minimum inhibitory concentration, Staphylococcus aureus 80257. The format is cell-based.
The subject of data set [5] is Diplococcus pneumoniae type I. As to the kind of experiment: Minimum inhibitory concentration, Diplococcus pneumoniae type I. The format is cell-based.
The subject of data set [6] is Streptococcus pyogenes C-203. The data set can be described thus: Minimum inhibitory concentration, Streptococcus pyogenes C-203. The format is cell-based.
The test system of the next data set is gram-positive bacteria. As to the kind of experiment: Antibacterial activity against gram-positive bacteria. The class given is cell-based. The source says:
The half esters of siomycin A and salts thereof show activities against a variety of microorganisms.

Data set [7] relates to Diplococcus pneumoniae type I. As to the kind of experiment: Therapeutic effect in mice infected with Diplococcus pneumoniae type I. The format is in vivo. Conditions: i.p. infection with Diplococcus pneumoniae type I, subcutaneous at 0, 4 and 8 hours, survival 7 days. Here is the method: (§1) The therapeutic effect of sodium salts of the half ester of siomycin A with dicarboxylic acid in mice against experimental infections are shown in Table 3.
(§2) A group of 10 mice weighing 19-21 g were infected with a standardized inoculum of Diplococcus pneumoniae type or Streptococcus pyogenes C-203 by intraperitoneal injection.
(§3) The sodium salts of half esters of siomycin A with the dicarboxylic acid were administered subcutaneously to the mice at 0, 4 and 8 hours after infection and survival of infected mice was examined for 7 days after infection.

In data set [8] the test system is Streptococcus pyogenes C-203. As to the kind of experiment: Therapeutic effect in mice infected with Streptococcus pyogenes C-203. The class given is in vivo. Conditions: i.p. infection with Streptococcus pyogenes C-203, subcutaneous at 0, 4 and 8 hours, survival 7 days. Here is the method: as §1, §2, §3
For data set [9] the following is noted: background, cited from earlier work.
A short description of data set [10]: Qualitative solubility in various solvents (text, Examples).

SMILES strings stand for the structures. ≈ marks a conversion by molar mass, not a printed value. Like-named read-outs stand apart in the source and are kept apart here.

The ED50 is the midpoint of the dose-response relation.

As to `C=C(NC(=O)C(=C)NC(=O)c1csc(C2=N[C@@H]3c4csc(n4)[C@H]4NC(=O)c5csc(n5)[C@H]([C@](C)(O)[C@@H](C)O)NC(=O)[C@H]5CSC(=N5)/C(=C/C)NC(=O)[C@H]([C@@H](C)O)NC(=O)c5csc(n5)[C@]3(CC2)NC(=O)[C@H](C)NC(=O)C(=C)NC(=O)C(=C)NC(=O)[C@H](C(C)C)N[C@@H]2C=Cc3c([C@H](C)O)cc(nc3[C@H]2O)C(=O)O[C@@H]4C)n1)C(N)=O` [Siomycin A, siomycin A], the Solubility in data set [1] was 0.00015%; in data set [9] (butanol), “slightly soluble”; in data set [9] (chloroform) it was “slightly soluble”; in data set [9] (dioxane), “soluble”; in [9] (ethanol) it was “slightly soluble”; in [9] (methanol), “slightly soluble”. In addition, the Solubility entry in [9] (water), in data set [10] (dilute alkaline solution) and in data set [10] (water) was “almost insoluble” throughout. In addition, the Minimum inhibitory concentration turned out to be 0.39 µg/mL (≈ 0.237 µM) in [2]; 0.78 µg/mL (≈ 0.473 µM) in the data set with Bacillus anthracis; 0.39 µg/mL (≈ 0.237 µM) in data set [3]; 0.39 µg/mL (≈ 0.237 µM) in data set [4]; 0.1 µg/mL (≈ 0.0606 µM) in [5]; 0.1 µg/mL (≈ 0.0606 µM) in [6]. The “minimum inhibitory concentration against gram-positive bacteria” value with gram-positive bacteria fell in the range of 0.1 to 0.78 µg/mL. Also, the ED50 is listed as 23.2 mg/kg in data set [7] and 75.2 mg/kg in [8].

These data come from patent publication US3983230A, “Antibiotic siomycin A derivatives and production thereof” (priority 1973, dated 1976).
